From ChEMBL document CHEMBL1201862, “PubChem BioAssay data set” (2004)
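Dose response: 5 concentrations. Exposure: 48 h. Format: 96-well plates. Endpoint: linear interpolation; highest concentration if not reached. GI50 is the concentration that inhibits growth by half.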 Active and inactive are the calls of the source. No stated cut-off is given here; in the data, active = GI50 up to about 1.1 µM and inactive = higher.

Key:
Assay in all cases: inhibition of tumour cell growth, NCI panel, 48 h
[1] = tested on: A549
[2] = tested on: ACHN
[3] = tested on: COLO 205
[4] = tested on: DMS-273
[5] = tested on: HCT-15
[6] = tested on: HL-60
[7] = tested on: HT-29
[8] = tested on: IGROV-1
[9] = tested on: NCI-H522
[10] = tested on: OVCAR-4
[11] = tested on: RPMI-8226
[12] = tested on: SF-268
[13] = tested on: SK-MEL-28
[14] = tested on: SK-MEL-5
[15] = tested on: SK-OV-3
[16] = tested on: SN12C
[17] = tested on: EKVX
[18] = tested on: HCC 2998

| SMILES | GI50 [1] | GI50 [2] | GI50 [3] | GI50 [4] | GI50 [5] | GI50 [6] | GI50 [7] | GI50 [8] | GI50 [9] | GI50 [10] | GI50 [11] | GI50 [12] | GI50 [13] | GI50 [14] | GI50 [15] | GI50 [16] | GI50 [17] | GI50 [18] |
| --- | --- | --- | --- | --- | --- | --- | --- | --- | --- | --- | --- | --- | --- | --- | --- | --- | --- | --- |
| COc1cc2c(c3c1c(=O)c1ccccc1n3C)C=CC(C)(C)O2 [ACRONINE] | > 100 µM (inactive) | 45.4 µM (inactive) | > 100 µM (inactive) | 23.3 µM (inactive) | 45.3 µM | 60.7 µM (inactive) | 56.9 µM (inactive) | 58.5 µM (inactive) | 18.5 µM (inactive) | > 100 µM (inactive) | 27.9 µM (inactive) | > 100 µM (inactive) | 48.6 µM (inactive) | > 100 µM (inactive) | > 100 µM (inactive) | > 100 µM (inactive) |  |  |
| COC(=O)c1cc2c(c(C(=O)OC)c1O)C(=O)C=CC2=O | > 42.8 µM (inactive) | > 31.3 µM (inactive) | > 50.2 µM (inactive) | 34.1 µM (inactive) | 21.6 µM |  | > 9.1 µM (inactive) | 24.1 µM (inactive) |  | > 38.8 µM (inactive) | > 9.1 µM (inactive) | > 40.6 µM (inactive) | > 39.9 µM (inactive) | 37.2 µM (inactive) | > 89.5 µM (inactive) | > 42.1 µM (inactive) | > 21.2 µM (inactive) | > 43.1 µM (inactive) |
| O=C(CSc1nnc(-c2ccc(/N=C\c3ccc(Cl)cc3)cc2)o1)Nc1ccc(Cl)cc1 | > 100 µM (inactive) | > 100 µM (inactive) | > 100 µM (inactive) | > 100 µM (inactive) | > 100 µM | > 100 µM (inactive) | > 100 µM (inactive) |  | > 100 µM (inactive) | > 100 µM (inactive) | 41.7 µM (inactive) | > 100 µM (inactive) | > 100 µM (inactive) | > 100 µM (inactive) | > 100 µM (inactive) | > 100 µM (inactive) | > 100 µM (inactive) |  |
| [N-]=[N+]=NC1C(Br)C(=O)NC(=O)N1[C@H]1C[C@H](O)[C@@H](CO)O1 (some centres undefined) | > 100 µM (inactive) | > 100 µM (inactive) | > 100 µM (inactive) | > 100 µM (inactive) |  | > 100 µM (inactive) | > 100 µM (inactive) | > 100 µM (inactive) | > 100 µM (inactive) | > 100 µM (inactive) |  | > 100 µM (inactive) | > 100 µM (inactive) |  | > 100 µM (inactive) | > 100 µM (inactive) | > 100 µM (inactive) | > 100 µM (inactive) |
| CC[S+](C)c1ccc(-c2c3nc(c(-c4ccc([S+](C)CC)cc4)c4ccc([nH]4)c(-c4ccc([S+](C)CC)cc4)c4nc(c(-c5ccc([S+](C)CC)cc5)c5ccc2[nH]5)C=C4)C=C3)cc1.[O-][Cl+3]([O-])([O-])[O-].[O-][Cl+3]([O-])([O-])[O-].[O-][Cl+3]([O-])([O-])[O-].[O-][Cl+3]([O-])([O-])[O-] (centres undefined) | 18.5 µM (inactive) | 29.6 µM (inactive) | 35.9 µM (inactive) | 34.4 µM (inactive) | 19.3 µM | 6.41 µM (inactive) | 29.2 µM (inactive) |  | 29.6 µM (inactive) | > 100 µM (inactive) | 7.78 µM (inactive) | 21.8 µM (inactive) | 18.9 µM (inactive) | 24.7 µM (inactive) | 30.4 µM (inactive) | 16.8 µM (inactive) | 11 µM (inactive) |  |
| CNc1nnnn1C1OC(CO)C(O)C1O (centres undefined) | > 100 µM (inactive) | > 100 µM (inactive) | > 100 µM (inactive) | > 100 µM (inactive) | > 100 µM |  | > 100 µM (inactive) | > 100 µM (inactive) | > 100 µM (inactive) |  | > 100 µM (inactive) | > 100 µM (inactive) |  | > 100 µM (inactive) | > 100 µM (inactive) | > 100 µM (inactive) | > 100 µM (inactive) | > 100 µM (inactive) |
